Results: US7759337B2, “Phthalazine compounds and methods of use” (Amgen Inc., priority 2005, dated 2010)
pIC50: −log10 of the molar value.

These compounds were tested on production of TNF by monocytes activated with bacterial lipopolysaccharide (LPS) (assay: Lipopolysaccharide-activated monocyte TNF production assay). Conditions: Homo sapiens; whole blood monocyte assay (LPS induced TNF release).
Assay type: cell-based
In short: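 Adherent human PBMC-derived monocytes preincubated 60 min with nine two-fold compound dilutions, then stimulated with E. coli K532 LPS (30 ng/mL in the added medium) for 4 h at 37 °C. Supernatant TNF measured by sandwich ELISA; IC50 is the compound concentration halving TNF production, from second-order polynomial fits.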

Question: Cc1ccc(C(N)=O)cc1-c1ccc2c(-c3ccc([S+](C)[O-])cc3C)nncc2c1 (stereo not drawn) [Example 243, 4-methyl-3-{1-[2-methyl-4-(methylsulfinyl)phenyl]phthalazin-6-yl}benzamide] was tested. Which pIC50 did it give?
Answer: ≥ 5.30

Question: How did the pIC50 turn out when Cc1ccc(C(=O)NC2CC2)cc1-c1ccc2c(-c3cccs3)nncc2c1 [Example 244, N-cyclopropyl-4-methyl-3-(1-thien-2-ylphthalazin-6-yl)benzamide] was run?
Answer: ≥ 5.30

Question: With Cc1ccc(C(=O)NC2CC2)cc1-c1ccc2c(-c3ccc(OC(F)(F)F)cc3)nncc2c1 [Example 245, N-cyclopropyl-4-methyl-3-{1-[4-(trifluoromethoxy)phenyl]phthalazin-6-yl}benzamide] as the compound, how does the pIC50 read?
Answer: ≥ 5.30

Question: How did the pIC50 turn out when Cc1ccc(C(=O)NC2CC2)cc1-c1ccc2c(-c3ccccc3F)nncc2c1 [Example 246, N-cyclopropyl-3-[1-(2-fluorophenyl)phthalazin-6-yl]-4-methylbenzamide] was run?
Answer: ≥ 5.30

Question: With CNc1noc2c(-c3ccc4c(-c5cccnc5C)nncc4c3)c(C)ccc12 [Example 247, N,6-dimethyl-7-[1-(2-methylpyridin-3-yl)phthalazin-6-yl]-1,2-benzisoxazol-3-amine] as the compound, how does the pIC50 read?
Answer: ≥ 5.30

Question: How did the pIC50 turn out when COc1c(F)cccc1-c1nncc2cc(-c3cc(C(=O)NC4CC4)ccc3C)ccc12 [Example 248, N-cyclopropyl-3-[1-(3-fluoro-2-methoxyphenyl)phthalazin-6-yl]-4-methylbenzamide] was run?
Answer: ≥ 5.30

Question: How did the pIC50 turn out when Cc1ccc(C(=O)NC2CC2)cc1-c1ccc2c(-c3ccc(C(F)(F)F)cc3)nncc2c1 [Example 249, N-cyclopropyl-4-methyl-3-{1-[4-(trifluoromethyl)phenyl]phthalazin-6-yl}benzamide] was run?
Answer: ≥ 5.30

Question: How did the pIC50 turn out when Cc1ccc(C(=O)NC2CC2)cc1-c1ccc2c(-c3ccccc3)nncc2c1 [Example 250, N-cyclopropyl-4-methyl-3-(1-phenylphthalazin-6-yl)benzamide] was run?
Answer: ≥ 5.30

Question: CCc1ccccc1-c1nncc2cc(-c3cc(C(=O)NC4CC4)ccc3C)ccc12 [Example 251, N-cyclopropyl-3-[1-(2-ethylphenyl)phthalazin-6-yl]-4-methylbenzamide] was tested. Which pIC50 did it give?
Answer: ≥ 5.30

Question: COc1cc(-c2nncc3cc(-c4cc(C(N)=O)ccc4C)ccc23)c(C)cn1 [Example 252, 3-[1-(2-methoxy-5-methylpyridin-4-yl)phthalazin-6-yl]-4-methylbenzamide] was tested. Which pIC50 did it give?
Answer: ≥ 5.30

Question: With Cc1ccc(C(=O)NC2CC2)cc1-c1ccc2c(-c3ccc(C(C)(C)C)cc3)nncc2c1 [Example 253, 3-[1-(4-tert-butylphenyl)phthalazin-6-yl]-N-cyclopropyl-4-methylbenzamide] as the compound, how does the pIC50 read?
Answer: ≥ 5.30

Question: Cc1ccc(C(=O)NC2CC2)cc1-c1ccc2c(-c3ccccc3C(F)(F)F)nncc2c1 [Example 254, N-cyclopropyl-4-methyl-3-{1-[2-(trifluoromethyl)phenyl]phthalazin-6-yl}benzamide] was tested. Which pIC50 did it give?
Answer: ≥ 5.30

Question: With Cc1ccc(C(N)=O)cc1-c1ccc2c(-c3cccnc3C)nncc2c1 [Example 255, 4-methyl-3-[1-(2-methylpyridin-3-yl)phthalazin-6-yl]benzamide] as the compound, how does the pIC50 read?
Answer: ≥ 5.30

Question: How did the pIC50 turn out when Cc1ccc(C(=O)NC2CC2)cc1-c1ccc2c(-c3ccc(S(C)(=O)=O)cc3C)nncc2c1 [Example 256, N-cyclopropyl-4-methyl-3-{1-[2-methyl-4-(methylsulfonyl)phenyl]phthalazin-6-yl}benzamide] was run?
Answer: ≥ 5.30

Question: With Cc1ccc(C(=O)NC2CC2)cc1-c1ccc2c(-c3ccc(Cl)cc3C)nncc2c1 [Example 257, 3-[1-(4-chloro-2-methylphenyl)phthalazin-6-yl]-N-cyclopropyl-4-methylbenzamide] as the compound, how does the pIC50 read?
Answer: ≥ 5.30

Question: COc1ccc(-c2nncc3cc(-c4cc(C(=O)NC5CC5)ccc4C)ccc23)c(C(F)(F)F)c1 [Example 258, N-cyclopropyl-3-{1-[4-methoxy-2-(trifluoromethyl)phenyl]phthalazin-6-yl}-4-methylbenzamide] was tested. Which pIC50 did it give?
Answer: ≥ 5.30

Question: How did the pIC50 turn out when Cc1ccc(C(N)=O)cc1-c1ccc2c(-c3cc(F)ncc3C)nncc2c1 [Example 259, 3-[1-(2-fluoro-5-methylpyridin-4-yl)phthalazin-6-yl]-4-methylbenzamide] was run?
Answer: ≥ 5.30

Question: With CSc1ccc(-c2nncc3cc(-c4cc(C(N)=O)ccc4C)ccc23)c(C)c1 [Example 260, 4-methyl-3-{1-[2-methyl-4-(methylsulfanyl)phenyl]phthalazin-6-yl}benzamide] as the compound, how does the pIC50 read?
Answer: ≥ 5.30

Question: With CSc1ccc(-c2nncc3cc(-c4cc(C(=O)NC5CC5)ccc4C)ccc23)c(C)c1 [Example 261, N-cyclopropyl-4-methyl-3-{1-[2-methyl-4-(methylsulfanyl)phenyl]phthalazin-6-yl}benzamide] as the compound, how does the pIC50 read?
Answer: ≥ 5.30

Question: How did the pIC50 turn out when COc1cc(F)ccc1-c1nncc2cc(-c3cc(C(=O)NC4CC4)ccc3C)ccc12 [Example 262, N-cyclopropyl-3-[1-(4-fluoro-2-methoxyphenyl)phthalazin-6-yl]-4-methylbenzamide] was run?
Answer: ≥ 5.30

Question: Cc1ccc(C(=O)NC2CC2)cc1-c1ccc2c(-c3ccncc3C)nncc2c1 [Example 263, N-cyclopropyl-4-methyl-3-[1-(3-methylpyridin-4-yl)phthalazin-6-yl]benzamide] was tested. Which pIC50 did it give?
Answer: ≥ 5.30

Question: With COc1ncc(-c2nncc3cc(-c4cc(C(=O)NC5CC5)ccc4C)ccc23)cn1 [Example 264, N-cyclopropyl-3-[1-(2-methoxypyrimidin-5-yl)phthalazin-6-yl]-4-methylbenzamide] as the compound, how does the pIC50 read?
Answer: ≥ 5.30

Question: With Cc1ccc(C(=O)N(C)C)cc1-c1ccc2c(N3CCOCC3)nncc2c1 [Example 265, N,N,4-trimethyl-3-(1-morpholin-4-ylphthalazin-6-yl)benzamide] as the compound, how does the pIC50 read?
Answer: ≥ 5.30

Question: Cc1ccc(C(=O)NC2CC2)cc1-c1ccc2c(N3CCCOCC3)nncc2c1 [Example 266, N-cyclopropyl-4-methyl-3-[1-(1,4-oxazepan-4-yl)phthalazin-6-yl]benzamide] was tested. Which pIC50 did it give?
Answer: ≥ 5.30

Question: Cc1ccc(C(=O)NC2CC2)cc1-c1ccc2c(N3CCN4C(=O)CC[C@@H]4C3)nncc2c1 [Example 267, 3-{1-[(8aR)-6-oxohexahydropyrrolo[1,2-a]pyrazin-2(1H)-yl]phthalazin-6-yl}-N-cyclopropyl-4-methylbenzamide] was tested. Which pIC50 did it give?
Answer: ≥ 5.30

Question: With Cc1ccc(C(=O)NC2CCC2)cc1-c1ccc2c(N3CCN4C(=O)OC[C@@H]4C3)nncc2c1 [Example 269, 3-{1-[(8aS)-3-oxotetrahydro[1,3]oxazolo[3,4-a]pyrazin-7(1H)-yl]phthalazin-6-yl}-N-cyclobutyl-4-methylbenzamide] as the compound, how does the pIC50 read?
Answer: ≥ 5.30

Question: How did the pIC50 turn out when Cc1ccc(C(N)=O)cc1-c1ccc2c(N3CCCOCC3)nncc2c1 [Example 270, 4-methyl-3-[1-(1,4-oxazepan-4-yl)phthalazin-6-yl]benzamide] was run?
Answer: ≥ 5.30

Question: Cc1ccc(C(=O)NC2CC2)cc1-c1ccc2c(N3CCNC(=O)[C@@H]3C)nncc2c1 [Example 271, N-cyclopropyl-4-methyl-3-{1-[(2S)-2-methyl-3-oxopiperazin-1-yl]phthalazin-6-yl}benzamide] was tested. Which pIC50 did it give?
Answer: ≥ 5.30

Question: How did the pIC50 turn out when Cc1ccc(C(=O)NC2CC2)cc1-c1ccc2c(N3CCC[C@H]3C(F)(F)F)nncc2c1 [Example 273, N-cyclopropyl-4-methyl-3-{1-[(2S)-2-(trifluoromethyl)pyrrolidin-1-yl]phthalazin-6-yl}benzamide] was run?
Answer: ≥ 5.30

Question: Cc1ccc(C(=O)NC2CC2)cc1-c1ccc2c(N3CCN4CCC[C@H]4C3)nncc2c1 [Example 274, 3-{1-[(8aS)-hexahydropyrrolo[1,2-a]pyrazin-2(1H)-yl]phthalazin-6-yl}-N-cyclopropyl-4-methylbenzamide] was tested. Which pIC50 did it give?
Answer: ≥ 5.30
